In one series the test system is Huh7.5.1 cells. The experiment in a line: in vitro. It is filed as cell-based. How it is done:
(§1) The anti-HCV activity assay was performed by using Huh7.5.1 cells (presented by WUHAN INSTITUTE of VIROLOGY, CHINESE ACADEMY OF SCIENCES) infected by HCV (J399E) inserted with enhanced green fluorescent protein (EGFP). The variation of the green fluorescence intensity was recorded on a microplate reader and cytotoxicity was measured at the same time, so as to evaluate the influence of the compound on the replication activity of HCV.
(§2) Compounds to be tested were dissolved in DMSO to prepare a stock solution before the test. Upon using, the stock solution was diluted to a desired concentration with DMEM (Dulbecco's Modified Eagle Media, purchased from GibcoBRL company (Life Technologies, Grand Island, N.Y., USA)) containing 10% FBS (fetal bovine serum, purchased from Hyclone company (Logan, Utah, USA)). The final concentration of DMSO for cell culture was less than 0.25% (V/V, Volume to Volume), and such DMSO concentration would not affect the growth of cells.
(§3) Huh7.5.1 cells (10% FBS, DMEM) at 10^5 cells/ml were inoculated on a 96-well plate (Costar 3904) with 100 μl per well. 24 h later, the supernatant of the culture media was sucked out, and 50 μl of virus supernatant with MOI=0.1 was added. 8 h later, 50 μl of the testing compound solution was added and 100 μl of culture media was supplemented. After incubation for 72 h, the supernatant was sucked out, and read on a fluorescent microplate reader (Ex=488 nm, Em=516 nm). Then each well was added with 20 μl of MTT (5 mg/ml) and additional 50 μl of culture media. 4 h later, 100 μl of MTT lysis solution was added. 6 h later, reading was performed at a wavelength of 570 nm.

Series [1] deals with HCV (J399E) inserted with enhanced green fluorescent protein (EGFP). The experiment in a line: microbe, parasite or virus in culture. The class given is cell-based, Hepatitis C Virus. As to conditions: for IC50: read-out: IC50 (concentration at which 50% of the replication of HCV was inhibited); for SI (bioactivity selective index): from CC50 and IC50 in Huh7.5.1 cells, SI greater than 2 means effective. Here is the method:
The in vitro anti-HCV activity assay of the 2′,2-bis-thiazole non-nucleoside compounds at cellular level was performed by using an anti-HCV activity assay protocol recognized by one skilled in the art.
The variation of the green fluorescence intensity was recorded on a microplate reader and cytotoxicity was measured at the same time, so as to evaluate the influence of the compound on the replication activity of HCV.
Compounds to be tested were dissolved in DMSO to prepare a stock solution before the test. Upon using, the stock solution was diluted to a desired concentration with DMEM (Dulbecco's Modified Eagle Media, purchased from GibcoBRL company (Life Technologies, Grand Island, N.Y., USA)) containing 10% FBS (fetal bovine serum, purchased from Hyclone company (Logan, Utah, USA)).
Positive control: ribavirin (purchased from Sigma/Aldrich). It was dissolved in DMSO to prepare a stock solution and stored at −20° C. before use, and diluted to a desired concentration upon using.
as §3

The nature of a further series: in vitro. It is filed as cell-based. Particulars: human. Here is the method:
as §1, §2, §3

Setting [2] is: HCV (J399E)-EGFP infected Huh7.5.1 cells, MOI=0.1, 72 h incubation.
Where [3] appears, read: Hepatitis C virus, Huh-7.5.1, 72 h.

These results are taken from patent US20120264793A1, “Pharmaceutical Use of 2',2-Bis-Thiazole Non-Nucleoside Compounds as Hepatitis C Virus Inhibitor” (Shanghai Institute of Materia Medica, Chinese Academy of …, priority 2009, published 2012).

Molecules are shown by their SMILES. Like-named read-outs stand apart in the source and are kept apart here.

One may read the CC50 as the concentration that lowers cell viability or growth by half. Consider `CC(C)Cc1sc(-c2nccs2)nc1C(N)=O` [Compound C267], for which the CC50 in the series on Huh7.5.1 cells is more than 100 µM. In addition, the IC50 in series [1] (setting [2]) came to 4.9 µM.

Take `CCC(=O)c1nc(-c2nccs2)sc1CC(C)C` [Compound C280-4]: the CC50 in the series with Huh7.5.1 cells was more than 100 µM. Further, the IC50 in series [1] (setting [2]) worked out at 8.9 µM.

Take `CNC(=O)c1nc(-c2nccs2)sc1CC(C)C` [Compound C281]: in the series with Huh7.5.1 cells, the CC50 was more than 100 µM. Besides, the IC50 in series [1] (setting [2]) was determined as 13.6 µM.

On to `CCC(O)c1nc(-c2nccs2)sc1CC(C)C` (centres unmarked) [Compound C282-2], for which the CC50 at 72 h in the series “in vitro” was more than 100 µM. In addition, the IC50 in series [1] (setting [3]) is 2.8 µM. In addition, the “SI (bioactivity selective index)” value in series [1] is recorded as more than 35.7.

Consider `O=C(O)c1nc(-c2nccs2)sc1Cc1ccccc1` [Compound C302], for which half-maximal cytotoxicity in the series with Huh7.5.1 cells (CC50) was put at 67.5 µM. Moreover, in series [1] (setting [2]), the IC50 is 25.7 µM.

On to `CCOC(=O)/C=C/c1nc(-c2nccs2)sc1CC(C)C` [Compound C322-2], for which the CC50 in the series with Huh7.5.1 cells was more than 100 µM. Further, in series [1] (setting [2]), the IC50 is 9.8 µM.

Consider `CCOC(=O)CCc1nc(-c2nccs2)sc1CC(C)C` [Compound C324-5], for which, in the series with Huh7.5.1 cells, the CC50 is more than 100 µM. Further, in series [1] (setting [2]), the IC50 was determined as 36.6 µM.

Regarding `CC(C)Cc1sc(-c2nccs2)nc1C(=O)Nc1ccccc1` [Compound C343], in the series with Huh7.5.1 cells, the half-maximal cytotoxic concentration (CC50) is more than 100 µM. Also, in series [1] (setting [2]), the IC50 amounted to 19.1 µM.

In the series “in vitro”, `CC(C)Cc1sc(-c2nccs2)nc1C(=O)NCc1ccccc1` [Compound C357] registered a CC50 at 72 h of more than 33.3 µM. The IC50 in series [1] (setting [3]) stood at 2.8 µM. Besides, the “SI (bioactivity selective index)” value in series [1] is listed as more than 11.9.

`CC(C)Cc1sc(-c2nccs2)nc1CNC(=O)c1nc(-c2nccs2)sc1CC(C)C` [Compound C503] registered a CC50 at 72 h in the series “in vitro” of more than 100 µM. In addition, in series [1] (setting [3]), the IC50 came out at 1.4 µM. Besides, the “SI (bioactivity selective index)” value in series [1] was more than 71.

Turning to `CC(C)Cc1sc(-c2nccs2)nc1C(=O)NCc1ccc(F)cc1` [Compound W28F], in “in vitro”, the midpoint of cytotoxicity, the CC50 at 72 h, lay at 36.9 µM. Moreover, the IC50 in series [1] (setting [3]) is 7.5 µM. For the same compound, the “SI (bioactivity selective index)” value in series [1] is reported as 4.9.

Turning to `Cc1cnc(-c2nc(C(=O)NCc3ccc(F)cc3)c(CC(C)C)s2)s1` [Compound W28MF], in “in vitro”, the CC50 at 72 h is more than 100 µM. Also, the IC50 in series [1] (setting [3]) came out at 0.8 µM. Besides, in series [1], the “SI (bioactivity selective index)” value was more than 125.

Regarding `NC(=O)c1ncn([C@@H]2O[C@H](CO)[C@@H](O)[C@H]2O)n1` [ribavirin, reference compound], half-maximal cytotoxicity in “in vitro” (CC50 at 72 h) was put at 449 µM. Also, the IC50 in series [1] (setting [3]) is 48.3 µM. In series [1], the “SI (bioactivity selective index)” value turned out to be 9.3.
